In patent US20030207843A1, “Treatment of drug-resistant human immunodeficiency virus infection” (priority 1999, published 2003):
Where two headings read alike, the source gives them in different places.

What was measured:
[1] = test system: multidrug-resistant HIV-1 clinical isolate 11588p1; assay: p24 reduction assay in MT-2 cells, 11588p1; assay type: cell-based
Protocol: (§1) Cells. MT-2 cells (AIDS Research and Reference Reagent Program, National Institute of Allergy and Infectious Diseases, National Institutes of Health) were maintained in RPMI 1640 supplemented with 10% fetal bovine serum (FBS; JRH Biosciences, Lenexa, Kans.), 10 mM HEPES buffer, 50 IU/ml penicillin and 50 μg/ml streptomycin.
(§2) Antiviral Susceptibility Assays. The antiviral activity of each compound […], followed by incubation in the presence of three-fold serial drug dilutions (3 wells per dilution) (see Mellors, et. al., Antimicrob. Agents Chemother. 39:1087-1092). Five or seven days after infection, culture supernatants were harvested, lysed with 0.5% triton-X 100 and assayed for p24 antigen concentration using a commercial ELISA assay (DuPont, NEN Products, Wilmington, Del.). The antiviral activity of the compounds is expressed as the IC50, which is the concentration required to inhibit 50% of p24 antigen production. The fold-resistance of a test virus is calculated by dividing the IC50 of the test virus by the IC50 of the HIV-1LAI control virus.
(§3) The multi-drug resistant HIV-1 strains, 11163p1 and 11588p1, are human clinical isolates having the RT mutations indicated. HIV-1 strains treated with the lipid analogs of the present invention include wild type, e.g., xxLAI, and the like, single mutation, e.g., xxLAI MI 84V (resistant to 3TC), xxLAI L74V (resistant to ddI and ddC), xxLAI K65R (resistant to ddI, ddC, DAPD, DXG, tenofovir, and adefovir), xxLAI T215Y (resistant to AZT), and the like, double mutations, e.g., xxLAI M41 L/T215Y (resistant to AZT), xxLAI MI 84V/T215Y (resistant to 3TC and AZT), and the like, and multiple mutations, e.g., xxLAI 4XAZT ((D67N, K70R, T215Y, K219Q) resistant to AZT)), xxLAI 4XAZT/M184V ((D67N, K70R, M 184V, T215Y, K219Q) resistant to AZT and 3TC), xxLAI M5456-12 (AZT+NNRTI resistant: D67N, K70R, K103N, T215Y), xxLAI G2-3g (AZT/3TC co-resistant: M41L, D67N, M184V, H208Y, L210W, R211K, L214F, T215Y, 1293V, E297A), 11163 (multinucleoside resistant virsus: M41L, A62V, V751, F77L, K103N, F116Y, Q151M, Y181C, M184V), 11588 (multinucleoside resistant virsus: A62V, K65R, K70R, V751, F77L, F116Y, Q151M, M184V, K219Q), and the like.

HIV-1LAI 4XAZT/M184V = assay: p24 reduction assay in MT-2 cells, 4XAZT/M184V; assay type: cell-based; conditions: for Fold-resistance: 4XAZT/M184V relative to wild type virus
Protocol: as §1
(§4) Antiviral Susceptibility Assays. The antiviral activity of each compound was determined by inoculating MT-2 cells with HIV-1LAI at a multiplicity of infection (MOI) of 0.01 TCID50/cell, followed by incubation in the presence of three-fold serial drug dilutions (3 wells per dilution) (see Mellors, et. al., Antimicrob. Agents Chemother. 39:1087-1092). Five or seven days after infection, culture supernatants were harvested, lysed with 0.5% triton-X 100 and assayed for p24 antigen concentration using a commercial ELISA assay (DuPont, NEN Products, Wilmington, Del.). The antiviral activity of the compounds is expressed as the IC50, which is the concentration required to inhibit 50% of p24 antigen production. The fold-resistance of a test virus is calculated by dividing the IC50 of the test virus by the IC50 of the HIV-1LAI control virus.
(§5) Generation of Mutant Recombinant HIV-1. HIV-1 containing the desired mutations were generated by oligonucleotide directed mutagenesis (Altered Sites II, Promega) as previously described (Mellors, et. al., Molecular Pharm. 41:446-451). After mutagenesis, mutant RT was subcloned into the pxxHIV-1LAI cloning vector using the silent XmaI and XbaI restriction sites located at the 5′ and 3′ ends of RT. Clones were DNA sequenced to verify the presence of the desired mutation(s) and electroporated into MT-2 cells as described above to generate infectious mutant recombinant HIV-1.
(§6) Mutant RT was generated via oligonucleotide-directed mutagenesis and ligated into the pXXHIV-1LAI cloning vector. Cloning was facilitated by the presence of two silent restriction sites at the 5′ and 3′ ends (Xma1 and Xba1, respectively) of pXXHIV-1LAI RT. Infectious mutant recombinant HIV-1 was generated by electroporating MT-2 cells with mutated pXXHIV-1LAI clones. The presence of the desired mutations was verified by DNA sequencing.
as §3

NL4-3 (wild type virus) = assay: p24 reduction assay in MT-2 cells, NL4-3; assay type: cell-based, HIV-1
[2] = test system: HIV-1LAI 4XAZT/Q161L/H208Y; assay: p24 reduction assay in MT-2 cells, 4XAZT/Q161L/H208Y; assay type: cell-based; conditions: Table 7; for EC50: 4XAZTQ161L/H208Y; for Fold-resistance: 4XAZTQ161L/H208Y relative to wild type virus
Protocol: as §1, §4, §5, §6
Invention compounds were also evaluated against a panel of HIV-1LAI derived recombinants resistant to PFA and the PFA invention compounds, as shown in Table 7.

[3] = test system: 9GC (multinucleoside resistant recombinant virus D67E, S68T, T69S[SA insert], T215Y); assay: p24 reduction assay in MT-2 cells, virus 9GC; assay type: cell-based, HIV-1; conditions: Table 4; for Fold-resistance: virus 9GC relative to wild type virus; for EC50: virus 9GC, mean ± SD
Protocol: as §1, §4
The MNR panel consisted of a virus containing the mutations V75I, F77L, F116Y and […], a virus containing the T69S[SA insert], and a clinical isolate carrying the classic MNR genotype (62V/751/77L/116Y/151M). Each of the PFA invention compounds retained potency against these viruses with fold resistance values of <2.

HIV-1LAI M184V/T215Y = assay: p24 reduction assay in MT-2 cells, M184V/T215Y; assay type: cell-based; conditions: Table 1, MOI 0.01
Protocol: as §1, §4, §5
Mutant RT was generated via oligonucleotide-directed mutagenesis and ligated into the pXXHIV-1LAI cloning vector. Cloning was facilitated by the presence of two silent restriction sites at the 5′ and 3′ ends (Xma1 and Xba1, respectively) of pXXHIV-1LAI RT. […]

[4] = test system: multidrug-resistant HIV-1 clinical isolate 11163p1; assay: p24 reduction assay in MT-2 cells, 11163p1; assay type: cell-based
Protocol: as §1, §2
The multi-drug resistant HIV-1 strains, 11163p1 and 11588p1, are human clinical isolates having the RT mutations indicated. […]

HIV-1LAI K65R = assay: p24 reduction assay in MT-2 cells, K65R; assay type: cell-based; conditions: for EC50: K65R; for Fold-resistance: K65R relative to wild type virus
Protocol: as §1, §4, §5, §6, §3

[5] = Table 1, 4xAZT/M184V, MOI 0.01, read-out: EC50
[6] = Table 5, 4XAZT/M184V, mean ± SD, read-out: EC50
[7] = Human immunodeficiency virus 1, MT2, Table 2, MOI 0.05
[8] = Human immunodeficiency virus 1, MT2

SMILES	EC50 ([1]; Table 2, MOI 0.05)	EC50 (HIV-1LAI 4XAZT/M184V; [5])	Fold-resistance (HIV-1LAI 4XAZT/M184V; Table 5)	EC50 (HIV-1LAI 4XAZT/M184V; [6])	EC50 (NL4-3 (wild type virus); Table 4, mean ± SD)	EC50 [2]	Fold-resistance [2]	Fold-resistance [3]	EC50 [3]	EC50 (HIV-1LAI M184V/T215Y)	EC50 ([4]; Table 2, MOI 0.05)	EC50 (HIV-1LAI K65R; Table 1, MOI 0.01)	Fold-resistance (HIV-1LAI K65R; Table 3)	EC50 (HIV-1LAI K65R; Table 3, mean ± SD)	further results
CCCCCCCCCCCCCCCCCCOC[C@@H](O)COP(=O)(O)C(=O)O [B-PFA, 1-O-octadecyl-sn-glycero-3-PFA]	9310 nM	2290 nM	(1.3)	2290 ± 1590 nM	2600 ± 1500 nM	6200 nM	0.85 (2.4)	(1.6)	4100 ± 1200 nM	1490 nM	3480 nM	17700 nM	(8.2)	14700 ± 6610 nM	
CCCCCCCCCCCCCCCCCCOC[C@H](COP(=O)(O)C(=O)O)OCC [EB-PFA, 1-O-octadecyl-2-O-ethyl-sn-glycero-3-PFA]	730 nM	580 nM	(0.9)	560 ± 80 nM	200 ± 200 nM	2020 nM	0.54 (2.6)	(0)	200 ± 300 nM	480 nM	1230 nM	3220 nM	(4.5)	2910 ± 1300 nM	
CCCCCCCCCCCCCCCCCCOC[C@H](COP(=O)(O)C(=O)O)OC [MB-PFA, 1-O-octadecyl-2-O-methyl-sn-glycero-3-PFA]	1160 nM	480 nM	(1.2)	590 ± 360 nM	2300 ± 1900 nM		0.14 (2.7)	(0)		540 nM		1240 nM	(3.3)	1660 ± 720 nM	
O=C(O)P(=O)(O)O [PFA, phosphonoformate, reference compound]			(1.3)				17.50 (2.4)	(1.1)					(3.8)		EC50 [1, 7]: 23500 nM; EC50 (HIV-1LAI 4XAZT/M184V; Human immunodeficiency virus 1, MT2, Table 1, 4xAZT/M184V, MOI 0.01): 15700 nM; EC50 (HIV-1LAI 4XAZT/M184V; Human immunodeficiency virus 1, MT2, Table 5, 4XAZT/M184V, mean ± SD, read-out: EC50): 22700 ± 15800 nM; EC50 (NL4-3 (wild type virus); Human immunodeficiency virus 1, NL43, MT2, Table 4, mean ± SD): 15100 ± 6100 nM; EC50 [2, 8]: 43100 nM; EC50 [3, 8]: 13200 ± 12800 nM; EC50 [4, 7]: 24400 nM; EC50 (HIV-1LAI K65R; Human immunodeficiency virus 1, MT2, Table 1, MOI 0.01): 57300 nM; EC50 (HIV-1LAI K65R; Human immunodeficiency virus 1, MT2, Table 3, mean ± SD): 67000 ± 22800 nM
